This passage reports IC50 results from patent US6472418B1, “Non-peptide NK1 receptors antagonists” (Warner-Lambert Company, priority 1998, dated 2002).

As a reminder, the IC50 is the concentration that gives 50% inhibition.

SMILES strings stand for the structures.

T1 sequence (P25103 whole entry): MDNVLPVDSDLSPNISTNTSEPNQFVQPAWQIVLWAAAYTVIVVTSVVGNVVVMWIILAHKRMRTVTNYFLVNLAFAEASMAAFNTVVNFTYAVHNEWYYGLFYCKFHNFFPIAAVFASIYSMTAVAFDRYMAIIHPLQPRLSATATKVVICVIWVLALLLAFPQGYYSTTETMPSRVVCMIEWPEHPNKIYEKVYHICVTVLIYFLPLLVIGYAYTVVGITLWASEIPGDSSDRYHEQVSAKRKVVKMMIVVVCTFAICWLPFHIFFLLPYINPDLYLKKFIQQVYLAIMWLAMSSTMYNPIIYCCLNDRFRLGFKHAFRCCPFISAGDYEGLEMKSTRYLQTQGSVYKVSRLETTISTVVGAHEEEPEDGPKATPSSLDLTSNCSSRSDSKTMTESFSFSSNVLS

The assay concerns the target T1, Human NK1 Receptor (Homo sapiens, UniProt P25103).
T1 construct: endogenous in cells; host or cells: Human lymphoma IM9 cells (whole cells)
Nature of the assay: In Vitro Human NK1 Receptor Binding Assay ([125I]Bolton-Hunter substance P displacement, IM9 cells). The settings on record: Human lymphoma IM9 cells, [125I]Bolton-Hunter substance P; Table 3, array-synthesis products; read-out: IC50 (nM) hNK1. The procedure: They have been evaluated in an NK1-receptor binding assay which is described below.
Human lymphoma IM9 cells were grown in RPMI 1640 culture medium supplemented with 10% fetal calf serum and 2 mM glutamine and maintained under an atmosphere of 5% CO2. Cells were passaged every 3-4 days by reseeding to a concentration of 4-8×10^6/40 ml per 175 cm^2 flask. Cells were harvested for experiments by centrifugation at 1000 g for 3 min. Pelleted cells were washed once by resuspension into assay buffer (50 mM Tris HCl pH 7.4, 3 mM MnCl2, 0.02% BSA, […] bacitracin, […] chymostatin, 2 mM phosphoramidon, […] leupeptin) and repeating the centrifugation step before resuspending at a concentration of 2.5×10^6 cells/mL assay buffer. Cells ([…]) were incubated with [^125I]Bolton-Hunter substance P (0.05-0.1 nM) in the presence and absence of varying concentrations of test compounds for 50 min at 21° C. Non-specific binding (10% of the total binding observed under these conditions) was defined by […] [Sar^9, Met(02)^11] substance P. Reactions were terminated by rapid filtration under vacuum onto GF\C filters presoaked in 0.2% PEI for 1-2 h, using a Brandel cell harvester. Filters were washed with 6×1 ml ice-cold Tris HCl (50 mM, pH 7.4) and radioactivity bound determined using a gamma couter. Results were analyzed using iterative curve fitting procedures in RS1 or Graphpad Inplot.
As to `O=C(NCc1cc(F)ccc1F)C(Cc1c[nH]c2ccccc12)NCc1cc2ccccc2o1` (centres unmarked) [Example 204, 2-[(Benzofuran-2-ylmethyl)-amino]-N-(2,5-difluoro-benzyl)-3-(1H-indol-3-yl)-propionamide], the IC50 is 68 nM.

On to `O=C(NCc1cnc2ccccc2c1)C(Cc1c[nH]c2ccccc12)NCc1cc2ccccc2o1` (centres unmarked) [Example 205, 2-[(Benzofuran-2-ylmethyl)-amino]-3-(1H-indol-3-yl)-N-quinolin-3-ylmethyl-propionamide], for which the IC50 was 2320 nM.

`O=C(NCCc1c[nH]cn1)C(Cc1c[nH]c2ccccc12)NCc1cc2ccccc2o1` (centres unmarked) [Example 206, 2-[(Benzofuran-2-ylmethyl)-amino]-N-[2-(1H-imidazol-4-yl)-ethyl]-3-(1H-indol-3-yl)-propionamide]: the IC50 stood at 6680 nM.

Consider `CC(NC(=O)C(Cc1c[nH]c2ccccc12)NCc1cc2ccccc2o1)c1cccc2ccccc12` (centres unmarked) [Example 207, 2-[(Benzofuran-2-ylmethyl)-amino]-3-(1H-indol-3-yl)-N-(1-naphthalen-1-yl-ethyl)-propionamide], for which the IC50 came out at 591 nM.

For the molecule `Cc1ccc(C(C)NC(=O)C(Cc2c[nH]c3ccccc23)NCc2cc3ccccc3o2)s1` (centres unmarked) [Example 208, 2-[(Benzofuran-2-ylmethyl)-amino]-3-(1H-indol-3-yl)-N-[1-(5-methyl-thiophen-2-yl)-ethyl]-propionamide], the IC50 was found to be 15 nM.

On to `Cc1ccc(CNC(=O)C(Cc2c[nH]c3ccccc23)NCc2cc3ccccc3o2)cc1` (centres unmarked) [Example 209, 2-[(Benzofuran-2-ylmethyl)-amino]-3-(1H-indol-3-yl)-N-(4-methyl-benzyl)-propionamide], for which the IC50 is 82 nM.

In the case of `O=C(NC1(CO)CCCC1)C(Cc1c[nH]c2ccccc12)NCc1cc2ccccc2o1` (centres unmarked) [Example 211, 2-[(Benzofuran-2-ylmethyl)-amino]-N-(1-hydroxymethylcyclopentyl)-3-(1H-indol-3-yl)-propionamide], the IC50 was over 10000 nM.

As to `O=C(NCCn1cccc1)C(Cc1c[nH]c2ccccc12)NCc1cc2ccccc2o1` (centres unmarked) [Example 212, 2-[(Benzofuran-2-ylmethyl)-amino]-3-(1H-indol-3-yl)-N-(2-pyrrol-1-yl-ethyl)-propionamide], the 50% inhibitory concentration (IC50) came to 658 nM.

Take `O=C(NCCN1CCOCC1)C(Cc1c[nH]c2ccccc12)NCc1cc2ccccc2o1` (centres unmarked) [Example 213, 2-[(Benzofuran-2-ylmethyl)-amino]-3-(1H-indol-3-yl)-N-(2-morpholin-4-yl-ethyl)-propionamide]: the IC50 was determined as 1260 nM.

`CN(C)c1ccc(CNC(=O)C(Cc2c[nH]c3ccccc23)NCc2cc3ccccc3o2)cc1` (centres unmarked) [Example 214, 2-[(Benzofuran-2-ylmethyl)-amino]-N-(4-dimethylamino-benzyl)-3-(1H-indol-3-yl)-propionamide]: the IC50 stood at 4010 nM.

For the molecule `O=C(NCc1cc(Cl)sc1Cl)C(Cc1c[nH]c2ccccc12)NCc1cc2ccccc2o1` (centres unmarked) [Example 215, 2-[(Benzofuran-2-ylmethyl)-amino]-N-(2,5-dichloro-thiophen-3-ylmethyl)-3-(1H-indol-3-yl)-propionamide], the 50% inhibitory concentration (IC50) turned out to be 70 nM.

On to `O=C(NCc1ccc([N+](=O)[O-])o1)C(Cc1c[nH]c2ccccc12)NCc1cc2ccccc2o1` (centres unmarked) [Example 216, 2-[(Benzofuran-2-ylmethyl)-amino]-3-(1H-indol-3-yl)-N-(5-nitro-furan-2-ylmethyl)-propionamide], for which the IC50 was over 10000 nM.

Consider `CC(NC(=O)C(Cc1c[nH]c2ccccc12)NCc1cc2ccccc2o1)c1ccc(N(C)C)cc1` (centres unmarked) [Example 217, 2-[(Benzofuran-2-ylmethyl)-amino]-N-[1-(4-dimethylamino-phenyl)-ethyl]-3-(1H-indol-3-yl)-propionamide], for which the IC50 is 819 nM.

On to `O=C(NCc1cc(C(F)(F)F)cc(C(F)(F)F)c1)C(Cc1c[nH]c2ccccc12)NCc1cc2ccccc2o1` (centres unmarked) [Example 218, 2-[(Benzofuran-2-ylmethyl)-amino]-N-(3,5-bis-trifluoromethyl-benzyl)-3-(1H-indol-3-yl)-propionamide], for which the IC50 turned out to be 294 nM.

As for `O=C(NCc1cccc(Br)c1)C(Cc1c[nH]c2ccccc12)NCc1cc2ccccc2o1` (centres unmarked) [Example 219], the IC50 was 31 nM.

Consider `O=C(NCc1ccc([N+](=O)[O-])cc1)C(Cc1c[nH]c2ccccc12)NCc1cc2ccccc2o1` (centres unmarked) [Example 221, 2-[(Benzofuran-2-ylmethyl)-amino]-3-(1H-indol-3-yl)-N-(4-nitro-benzyl)-propionamide], for which the half-maximal inhibitory concentration (IC50) was 23 nM.

On to `O=C(NCCN1CCCC1)C(Cc1c[nH]c2ccccc12)NCc1cc2ccccc2o1` (centres unmarked) [Example 222, 2-[(Benzofuran-2-ylmethyl)-amino]-3-(1H-indol-3-yl)-N-(2-pyrrolidin-1-yl-ethyl)-propionamide], for which the IC50 was over 10000 nM.

For the molecule `O=C(NCC1CCCO1)C(Cc1c[nH]c2ccccc12)NCc1cc2ccccc2o1` (centres unmarked) [Example 223, 2-[(Benzofuran-2-ylmethyl)-amino]-3-(1H-indol-3-yl)-N-(tetrahydro-furan-2-ylmethyl)-propionamide], the IC50 was over 10000 nM.

Take `O=C(NC1CC1c1ccccc1)C(Cc1c[nH]c2ccccc12)NCc1cc2ccccc2o1` (centres unmarked) [Example 224, 2-[(Benzofuran-2-ylmethyl)-amino]-3-(1H-indol-3-yl)-N-(2-phenyl-cyclopropyl)-propionamide]: the IC50 came to 2900 nM.

On to `CC(C)(NC(=O)C(Cc1c[nH]c2ccccc12)NCc1cc2ccccc2o1)C1CCCCC1` (centres unmarked) [Example 225, 2-[(Benzofuran-2-ylmethyl)-amino]-N-(1-cyclohexyl-1-methyl-ethyl)-3-(1H-indol-3-yl)-propionamide], for which the IC50 turned out to be 1340 nM.

Regarding `O=C(NCC1CCCCC1)C(Cc1c[nH]c2ccccc12)NCc1cc2ccccc2o1` (centres unmarked) [Example 226, 2-[(Benzofuran-2-ylmethyl)-amino]-N-cyclohexylmethyl-3-(1H-indol-3-yl)-propionamide], the IC50 was determined as 54 nM.

Take `CC(NC(=O)C(Cc1c[nH]c2ccccc12)NCc1cc2ccccc2o1)c1cccc(N(C)C)c1` (centres unmarked) [Example 227, 2-[(Benzofuran-2-ylmethyl)-amino]-N-[1-(3-dimethylamino-phenyl)-ethyl]-3-(1H-indol-3-yl)-propionamide]: the IC50 worked out at 182 nM.

With `O=C(NCc1cccc(C(F)(F)F)c1)C(Cc1c[nH]c2ccccc12)NCc1cc2ccccc2o1` (centres unmarked) [Example 228, 2-[(Benzofuran-2-ylmethyl)-amino]-3-(1H-indol-3-yl)-N-(3-trifluoromethyl-benzyl)-propionamide], the IC50 is 82 nM.

Turning to `O=C(NCc1ccc(F)c(Cl)c1)C(Cc1c[nH]c2ccccc12)NCc1cc2ccccc2o1` (centres unmarked) [Example 229, 2-[(Benzofuran-2-ylmethyl)-amino]-N-(3-chloro-4-fluoro-benzyl)-3-(1H-indol-3-yl)-propionamide], the IC50 is 33 nM.

`CC(NC(=O)C(Cc1c[nH]c2ccccc12)NCc1cc2ccccc2o1)c1ccn(C)c1` (centres unmarked) [Example 230, 2-[(Benzofuran-2-ylmethyl)-amino]-3-(1H-indol-3-yl)-N-[1-(1-methyl-1H-pyrrol-3-yl)-ethyl]-propionamide]: the IC50 is 21 nM.

For `O=C(NCc1cccnc1)C(Cc1c[nH]c2ccccc12)NCc1cc2ccccc2o1` (centres unmarked) [Example 231, 2-[(Benzofuran-2-ylmethyl)-amino]-3-(1H-indol-3-yl)-N-pyridin-3-ylmethyl-propionamide], the IC50 worked out at 790 nM.
